Measurements taken from US20240000741A1, “ALL-TRANS RETINOIC ACID ENHANCES RADIOTHERAPY AND OVERCOMES IMMUNE SUPPRESSION FOR CANCER THERAPY” (The University of Chicago, priority 2022, published 2024).
Where a name gives a salt, the structure may show the parent alone.

What was measured:
[1] = test system: MC38 colon carcinoma tumors; experiment: MC38 tumor growth after local ablative IR and/or RA; type: in vivo, mouse
[2] = test system: immune cells in tumors; experiment: Flow cytometric analysis of immune cells in treated MC38 tumors and draining lymph nodes; type: in vivo, mouse; conditions: FTY720 administration, after IR+RA treatment
Excerpt: Single cell suspensions were obtained as previously described (40). Cells were blocked with anti-Fc receptor (2.4 G2, BioXCell, Lebanon, New Hampshire, United States of America) and stained for live/dead with Zombie UV, followed staining using antibodies against CD45, CD4, CD8, NK1.1, CD11b, CD11c, Ly6C, Ly6G, F4/80, CD44, CD62L.
The following antibodies were used for high-dimensional flow analysis: BV605-CX3CR, BV650-XCR1, PB-CD11 b, BV510-CD24, BV711-CD64, BV785-F4/80, AF532-CD45, PerCP-Cy5.5-1-A/I-E, PerCP-eFluor710-Flt3, PE-Cy7-CD11c, FITC-Ly6C, PE-iNOS, PE-Dazzle 594-CD103, APC-TNF, Alexa Fluor 700-CD206, and APC-Cy7-SIRPα. For IFN-γ and GrzB (515407) staining, cells were cultured with PMA/ionomycin and brefeldin A (423303, BioLegend, San Diego, California, United States of America) for 6 hours followed by intracellular staining using BD fix/perm intracellular staining kit (554714, BD Biosciences, Franklin Lakes, New Jersey, United States of America). For TNF-α staining, cells were stimulated by PMA/ionomycin and brefeldin A for 4 hours followed by intracellular staining. Foxp3 (17-5773-82, Thermo Fisher Scientific, Waltham, Massachusetts, United States of America) Ki67 (Clone 16-A8, BioLegend, San Diego, California, United States of America) and iNOS staining were performed following Foxp3 staining protocol (00-5523-00, Thermo Fisher Scientific, Waltham, Massachusetts, United States of America). Cells were analyzed on Fortessa flow cytometer (BD Biosciences, Franklin Lakes, New Jersey, United States of America) or on Aurora spectral cytometer (Cytek Biosciences, Fremont, California, United States of America. Data was analyzed with software sold under the tradename FLOWJO software (FlowJo LLC, Ashland, Oregon, United States of America).
Immune cells in tumors 4 days after the start of the treatment were examined. […] In CD11b+ subsets, Ly6C^+ cells, including CD11c^+Ly6C^+ cells, increased by 4-fold in tumors receiving the combination treatment. […] Next, the DC population was examined by analyzing high-dimensional flow cytometry data using traditional dendritic cell (DC) markers. Monocyte-derived dendritic cells (MoDCs) (Ly6C^+CD11 b^+CD11c^+ MHC-II^+CXCR3^+CD64^+SIRPα^+CD206^− cells), a low level of type two dendritic cells (DC2s) (Ly6C^−CD11b^+CD11c^+MHC-11^+CXCR3^+CD64^−SIRPα+CD206^−) and a very low level of type one dendritic cells (DC1s) (Ly6C^−CD11b^−CD11c^+MHC-11^+ CXCR1^+CD103^+CD64^−) were detected in IR and RA treated tumors.

[3] = test system: bone marrow-derived DCs (BMDCs); experiment: iNOS induction in bone marrow-derived dendritic cells in vitro; type: cell-based, mouse; conditions: addition of IFN-γ to BMDCs cultured with RA
Experimental: Femurs and tibias from 8- to 10-week-old mice were harvested. BMDCs were derived as described (40). The cultured BMDC were collected on day 6 for further experiments. For Inf-MAC induction in vitro, bone marrow cells were cocultured with the presence of 200 μM RA. On day 6, indicated amount of IFN-γ was added directly to the culture. Cells were stained for iNOS and TNF-α after 24-36 hours and analyzed using flow cytometry.

CC(=N)NCc1cccc(CN)c1.Cl.Cl [1400 W, N-[[-(aminomethyl)phenyl]methyl]-ethanimidamide dihydrochloride]
antitumor efficacy of combined IR and RA treatment ([1]; iNOS inhibitor 1400 W administered in vivo): significantly diminished

CCCCCCCCc1ccc(CCC(N)(CO)CO)cc1 [FTY720, fingolimod hydrochloride]
efficacy of IR+RA treatment ([1]; FTY720 20 μg per dose by gavage every day for 7 days): diminished to the level of IR alone
response to IR ([1]; FTY720 20 μg per dose by gavage every day for 7 days, IR alone): not affected
iNOS production in Inf-MACs in tumors and in circulating blood [2]: abolishes increased iNOS production

B1: IFN-γ: interferon-gamma added to BMDC culture (protein, UniProt P01580 23-155, looked up)
Interferon gamma: HGTVIESLESLNNYFNSSGIDVEEKSLFLDIWRNWQKDGDMKILQSQIISFYLRLFEVLKDNQAISNNISVIESHLITTFFSNSKAKKDAFMSIAKFEVNNPQVQRQAFNELIRVVHQLLPESSLRKRKRSRC
iNOS production in BMDCs [3]: synergistically increased iNOS production in a dose dependent manner
